From PMC3409115, “Diverse Inhibitor Chemotypes Targeting Trypanosoma cruzi CYP51” (PLoS Neglected Tropical Diseases, 2012)
Where two headings read alike, the source gives them in different places.

Tested on: T. cruzi-infected skeletal myoblasts (intracellular amastigotes)
Experiment: Hit cross-validation in T. cruzi-infected mammalian cells (image-based assay)
Assay type: cell-based, Trypanosoma cruzi
Conditions: for Intracellular amastigotes in DAPI images after 72 h treatment: Compound 1 at 0.123 µM and 10 µM, Compound 13 at 10 µM; for EC50: Trypanosoma cruzi, Myoblast

Row | SMILES | Intracellular amastigotes in DAPI images after 72 h treatment | EC50 (72 h, T. cruzi-infected myoblasts, 72 h treatment, read-out: EC50 in image-based HTS cross-validation assay) [nM] | EC50 (in Mus musculus, T. cruzi amastigotes cultured in mouse myoblasts, averaged from two independent assays, read-out: EC50 in low throughput validation (repurchased hit)) [nM] | EC50 (72 h, T. cruzi-infected myoblasts, 72 h treatment, repurchased compound, read-out: EC50 averaged from two independent cross-validation assays for individually repurchased hits) [nM] | EC50 (72 h, T. cruzi-infected myoblasts, 72 h treatment, read-out: EC50 against T. cruzi parasites in HTS assay used to rank order the hits) [nM]
1 | Brc1ccccc1OCCCCCCn1ccnc1 [Compound 1] | elimination of intracellular amastigotes | 70 | 17 |  | 
2 | O=C(c1ccc(Cl)cc1)C(Oc1ccc(Cl)cc1)n1cncn1 (stereo not drawn) [Compound 13, 2-(4-chlorophenoxy)-1-(4-chlorophenyl)-2-(1H-1,2,4-triazol-1-yl)ethanone] | elimination of intracellular amastigotes |  |  | 1300 | 1310
